In article PMC3986099, “Development of a Radioiodinated Triazolopyrimidine Probe for Nuclear Medical Imaging of Fatty Acid Binding Protein 4” (PLoS ONE, 2014):

Columns and labels:
[1] = test system: differentiated THP-1 cells; experiment: Cell uptake study and inhibition assay; type: cell-based, Human; conditions: 4 °C, 3 hr
Description: Human monocytic leukemia THP-1 cells were obtained from ATCC and rat glioma C6 cells were from the Health Science Research Resources Bank. THP-1 cells were cultured in Gibco RPMI 1640 medium (Nissui Pharmaceutical Co., Ltd.) supplemented with 10% heat-inactivated fetal bovine serum (Nichirei Bioscience Inc.), 50 U/ml penicillin and 50 µg/ml streptomycin (Nacalai Tesque, Inc.) at 37 °C in 5% CO2. C6 cells were cultured in McCoy's 5A Modified Medium supplemented with 10% heat-inactivated fetal bovine serum, 50 U/ml penicillin and 50 µg/ml streptomycin at 37 °C in 5% CO2. For cell uptake assays, THP-1 monocytes were differentiated into macrophages by incubation with 100 nM phorbol 12-myristate 13-acetate for 24 hr.
For the cell uptake study, tubes were pre-incubated with 50 mg/ml skim milk in PBS (-) at 4 °C for 3 hr. Then, 0.4 ml of differentiated THP-1 cells (1.0×10^6 cells/tube) in PBS (-) and 0.05 ml [^125I]TAP1 in PBS (-) (0.008 MBq, 5% ethanol, v/v) were added to the tubes, and the cells were incubated at 4 °C for 3 hr. […] The radioactivity of the tubes was measured with a well-type γ-counter. […] Binding ratios were calculated as (radioactivity in tubes)/(total applied radioactivity)/(protein abundance) ×100 (%Dose/mg protein). […] After incubation at 4 °C for 3 hr, the radioactivity measurement and calculation of the binding ratio were performed as described above. […]

[2] = test system: 3T3-L1 preadipocytes and differentiated adipocytes; experiment: Cell uptake study in adipocytes and preadipocytes; type: cell-based, Murine; conditions: concentration-dependent, 0-100 μM
Description: Murine 3T3-L1 preadipocytes were obtained from ATCC and cultured in Dulbecco's Modified Eagle Medium (Nissui Pharmaceutical Co., Ltd.) supplemented with 10% heat-inactivated fetal bovine serum, 50 U/ml penicillin and 50 μg/ml streptomycin at 37 °C in 5% CO2. For cell uptake assay, differentiation of 3T3-L1 cells was performed as described previously. Briefly, two days after confluence, the medium was replaced with DMEM containing 10% FBS and inducers ([…], 10 μg/ml insulin, 0.5 mM 3-isobutyl-1-methylxanthine and 10 μM pioglitazone hydrochloride) for 2 days. The medium was then changed to DMEM supplemented with 10% FBS, 10 μg/ml insulin and 10 μM pioglitazone hydrochloride, and then incubated for 2 days. Then, the medium was changed to DMEM supplemented with 10% FBS and 10 μM pioglitazone hydrochloride every other day. After 8-10 days, the differentiated adipocytes were used for experiments.
For the cell uptake study using adipocytes, the medium of 24-well plate, in which the differentiated adipocytes or undifferentiated 3T3-L1 cells are cultured, was removed. […] Following the measurement of the radioactivity of collected cell lysate with a well-type γ-counter, protein determination was performed. […] Binding ratios were calculated as (radioactivity in collected cells)/(total applied radioactivity)/(protein abundance) x 100 (%Dose/mg protein).

his-tagged FABP4 [3] = target: T1, his-tagged FABP4 (Homo sapiens, UniProt P15090); experiment: Competition binding assay with 1,8-ANS as tracer
T1 construct: purchased Cayman Chemical Company
T1 sequence (P15090 whole entry): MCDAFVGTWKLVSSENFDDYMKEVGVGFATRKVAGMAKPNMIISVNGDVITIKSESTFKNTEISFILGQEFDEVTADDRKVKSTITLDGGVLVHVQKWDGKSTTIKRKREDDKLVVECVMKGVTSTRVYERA
Description: In accordance with previous reports, competition binding experiments were performed using 8-anilino-1-naphthalene sulfonic acid (1,8-ANS) as the tracer. Briefly, a mixture containing 0.12 ml phosphate buffer (50 mM, pH = 7.4), 0.03 ml TAP1 (2.6 mM–300 nM) in DMSO, 0.075 ml 1,8-ANS (24 nM) in phosphate buffer (0.2% ethanol, v/v) and 0.075 ml his-tagged FABP4 (1 µM) in phosphate buffer was incubated at room temperature for 5 min. […] The inhibition constants (K i) were calculated using the Cheng-Prusoff equation: K i = IC50/(1+[L]/K d), where [L] is the 1,8-ANS concentration and K d is the 1,8-ANS dissociation constant.

[4] = Parallel artificial membrane permeation assay (PAMPA); type: in vitro ADME; conditions: room temperature, read-out: permeability (PAMPA)
Description: The permeability of TAP1 was measured using a pre-coated PAMPA plate system (BD Biosciences) following the manufacturer's procedures. Briefly, TAP1 (100–200 µM, 0.2 ml) was added to donor plate and PBS (-) (0.2 ml) was added to the acceptor plate in the PAMPA plate assembly. After coupling both plates together and incubating at room temperature for 5 hr, 0.15 ml of the sample was obtained from each plate and 0.15 ml of the original compound solution was also obtained. Then, the absorbance of each sample was measured at 280 nm. The permeability was calculated as: Pe (cm/s) = (−ln[1−CA/Cequilibrium])/St (1/VD+1/VA) and Cequilibrium = [CDVD+CAVA]/(VD+VA). CD = C0 (AD−Abuffer)/(A0−Abuffer) and CA = C0 (AA−Abuffer)/(A0−Abuffer). C0 is the concentration of the start sample and A0, Abuffer, AD and AA are absorbances of the starting sample, buffer, donor and acceptor, respectively. VD and VA are the donor and acceptor volumes, respectively. S is the membrane area and t is the incubation time.

his-tagged FABP4 [5] = target: T1, his-tagged FABP4; experiment: Selectivity binding assay with FABP immobilized on Ni-NTA magnetic agarose beads
Description: For the selectivity binding assay, his-tagged FABP3 (0.75 mg/ml), FABP4 (0.75 mg/ml) and FABP5 (0.70 mg/ml) in 50 mM phosphate buffer containing 100 mM NaCl (20% glycerol, v/v, pH = 7.2) were used. Immobilization was performed following the manufacturer's procedures. Each solution of his-tagged FABP3 ([…], 1.5 µg), FABP4 (0.002 ml, 1.5 µg) or FABP5 (0.002 ml, 1.4 µg) was incubated with 0.02 ml Ni-NTA Magnetic Agarose Beads (Qiagen) and 0.5 ml protein binding buffer (50 mM NaH2PO4, 300 mM NaCl, 10 mM imidazole, pH = 8.0) at room temperature for 1 hr. After supernatant removal, protein binding buffer with 1% BSA was added, and the mixture was incubated at room temperature for 30 min. After removal of the supernatant, 0.4 ml of interaction buffer (50 mM NaH2PO4, 300 mM NaCl, 10 mM imidazole, and 0.005% Tween, v/v, pH = 8.0) and 0.05 ml [^125I]TAP1 (0.01 MBq) in interaction buffer (5% ethanol, v/v) were added. For measurement of non-specific binding, 0.05 ml of nonradioactive TAP1 in interaction buffer (5% ethanol, v/v, 11.3 µM) was added with the [^125I]TAP1. After incubation at room temperature for 2 hr, the supernatants were removed, and the beads washed with interaction buffer (5% ethanol, v/v). The radioactivity of beads in the tubes was measured with a well-type γ-counter (1480 Wizard3, PerkinElmer Japan Co., Osaka, Japan). Binding ratios were calculated as (radioactivity of beads)/(total applied radioactivity)/(protein abundance on beads)×100 (%Dose/µg protein).

| SMILES | inhibition of [^125I]TAP1 uptake into differentiated THP-1 cells [1] | inhibition of [^125I]TAP1 uptake into adipocytes [2] | Ki (his-tagged FABP4 [3]; competition with 1,8-ANS, FABP4) [nM] | Papp at 5 h [4] [×10⁻⁶ cm/s] | FABP4 binding relative to FABP3 (his-tagged FABP4 [5]; FABP4 over FABP3) | FABP4 binding relative to FABP5 (his-tagged FABP4 [5]; FABP4 over FABP5) | Kd (his-tagged FABP4 [3]) [nM] |
| --- | --- | --- | --- | --- | --- | --- | --- |
| CCc1c(-c2ccccc2)c(-c2ccccc2)nn1-c1ccccc1-c1cccc(OCC(=O)O)c1 [BMS309403, reference compound] | significantly inhibited | significantly inhibited |  |  |  |  |  |
| O=c1cc(COc2cccc(I)c2)[nH]c2nc(-c3ccccc3)nn12 [TAP1, 5-{(3-Iodophenoxy)methyl}-2-phenyl-[1], [2], [4]triazolo[1,5-a]pyrimidin-7(4H)-one] | significantly inhibited |  | 44.5 ± 9.8 | 12.6 ± 2.9 | more than 10 fold | more than 10 fold |  |
| O=S(=O)(O)c1cccc2cccc(Nc3ccccc3)c12 [1,8-ANS, 8-anilino-1-naphthalene sulfonic acid, reference compound] |  |  |  |  |  |  | 1200 |
